Measured values published in patent publication US20230192700A1, “PYRAZOLOPYRAZINES ACTING ON CANCERS VIA INHIBITION OF CDK12” (Bayer Aktiengesellschaft, priority 2020, published 2023).
Where two headings read alike, the source gives them in different places.

Legend:
CDK2/CyclinE = molecular target: T1, CDK2/CyclinE (Homo sapiens, UniProt P24941); assay: CDK2/CycE kinase assay (TR-FRET); format: biochemical; details: 2 mM ATP (high ATP); median; read-out: CDK2/CyclinE, 2 mM ATP (high ATP) IC50 - [mol/l] (median)
T1 construct: GST; purchased ProQinase GmbH (Freiburg, Germany); host or cells: insect cells (Sf9)
How it was run: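 GST-tagged human CDK2/CycE (Sf9-expressed, ~10 ng/mL) was preincubated 15 min with compound, then run 25 min at 22 °C with 2 mM ATP and 0.75 μM biotinylated peptide, pH 8.0. Phospho-substrate was detected by TR-FRET (anti-RB pSer807/811, Eu-anti-mouse, streptavidin-XL665), 665/620 nm ratio, normalised to no-inhibitor and no-enzyme controls.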

[1] = system: BRCA1 mRNA expression in MDA-MB-231 cells; assay: qRT-PCR assay: inhibition of BRCA1 mRNA expression in MDA-MB-231 cells; format: cell-based, human; details: 24 h exposure, BRCA1 mRNA normalised to GAPDH, median, read-out: RTqPCR-MDA-MB-231 IC50 [mol/l] BRCA1 (median)
Experimental: 3. qRT-PCR Assay: BRCA1, ATR, MCL1 in MDA-MB-231, CAL-120
Tissue cultured human MDA-MB-231 human breast cancer cells were plated in 500 microL per well at 200,000 cells/well in a 24 well microtiter plate. After 24 h, the cells were exposed continuously for 24 h to test substances (substances were added with Tecan HP D300 Dispenser). RNA was prepared using Qiagen RNeasy MiniKit (#74106), RNA was quantified using a NanoDrop Equipment, and 600 nano gamms of RNA was coverted to cDNA using a SuperScript VILO kit (Thermofisher #11755050) followed by qPCR amplification. BRCA1 and ATR gene expression was measured by RT-qPCR and normalised to GAPDH housekeeping gene expression. qPCR primer sets have been purchased from Thermo Fisher Scientific/Applied Biosystems: BRCA1, # Hs 01556193; ATR, #Hs 00992123; GAPDH, #Hs 03929097.

Row | Compound | IC50 (CDK2/CyclinE) | IC50 ([1]; Homo sapiens, MDA-MB-231, 24 h) | IC50 [1]
1 | CN1CCC(n2nc(NCc3nc4cc(Cl)ccc4[nH]3)c3ncc(C4CC4)nc32)CC1 [Example 22, N-[(5-chloro-1H-benzimidazol-2-yl)methyl]-6-cyclopropyl-1-(1-methylpiperidin-4-yl)-1H-pyrazolo[3,4-b]pyrazin-3-amine] | > 20000 nM | 9.36 nM | 
2 | CN1CCCC(n2nc(NCc3nc4ccccc4[nH]3)c3ncc(C4CC4)nc32)CC1 (single isomer, unassigned) [Example 37, (+) or (−)-N-[(1H-benzimidazol-2-yl)methyl]-6-cyclopropyl-1-[(4R*)-1-methylazepan-4-yl]-1H-pyrazolo[3,4-b]pyrazin-3-amine] | > 20000 nM | 11.3 nM | 
3 | CN1CCC(n2nc(NCc3nc4c(Cl)c(F)ccc4[nH]3)c3ncc(C4CC4)nc32)CC1 [Example 31, N-[(4-chloro-5-fluoro-1H-benzimidazol-2-yl)methyl]-6-cyclopropyl-1-(1-methylpiperidin-4-yl)-1H-pyrazolo[3,4-b]pyrazin-3-amine] | > 20000 nM | 4.99 nM | 
4 | Cc1c(F)ccc2[nH]c(CNc3nn(C4CCN(C)CC4)c4nc(C5CC5)cnc34)nc12 [Example 26, 6-cyclopropyl-N-[(5-fluoro-4-methyl-1H-benzimidazol-2-yl)methyl]-1-(1-methylpiperidin-4-yl)-1H-pyrazolo[3,4-b]pyrazin-3-amine] | > 20000 nM | 20 nM | 
5 | COC(C)(C)CCn1nc(NCc2nc3ccccc3[nH]2)c2ncc(C3CC3)nc21 [Example 67, N-[(1H-benzimidazol-2-yl)methyl]-6-cyclopropyl-1-(3-methoxy-3-methylbutyl)-1H-pyrazolo[3,4-b]pyrazin-3-amine] | > 20000 nM | 78 nM | 
6 | CN1CCCC(n2nc(NCc3nc4ccccc4[nH]3)c3ncc(C4CC4)nc32)CC1 (single isomer, unassigned) [Example 38, (−) or (+)-N-[(1H-benzimidazol-2-yl)methyl]-6-cyclopropyl-1-[(4R*)-1-methylazepan-4-yl]-1H-pyrazolo[3,4-b]pyrazin-3-amine] | > 20000 nM |  | 21.8 nM
7 | O=CO.c1ccc(-n2nc(NCc3nc4ccccc4[nH]3)c3ncc(C4CC4)nc32)cc1 [Example 13, formic acid—N-[(1H-benzimidazol-2-yl)methyl]-6-cyclopropyl-1-phenyl-1H-pyrazolo[3,4-b]pyrazin-3-amine (1/1)] | > 20000 nM | 39 nM | 
8 | O[C@H]1C[C@H](n2nc(NCc3nc4ccccc4[nH]3)c3ncc(C4CC4)nc32)C1 [Example 43, trans-3-(3-{[(1H-benzimidazol-2-yl)methyl]amino}-6-cyclopropyl-1H-pyrazolo[3,4-b]pyrazin-1-yl)cyclobutan-1-ol] | > 20000 nM | 28.9 nM | 
9 | CN1CCC(n2nc(NCc3nc4cc(Cl)c(F)cc4[nH]3)c3ncc(C4CC4)nc32)CC1 [Example 29, N-[(5-chloro-6-fluoro-1H-benzimidazol-2-yl)methyl]-6-cyclopropyl-1-(1-methylpiperidin-4-yl)-1H-pyrazolo[3,4-b]pyrazin-3-amine] | > 20000 nM | 9.47 nM | 
10 | OC[C@H]1C[C@H](n2nc(NCc3nc4ccccc4[nH]3)c3ncc(C4CC4)nc32)C1 [Example 46, [trans-3-(3-{[(1H-benzimidazol-2-yl)methyl]amino}-6-cyclopropyl-1H-pyrazolo[3,4-b]pyrazin-1-yl)cyclobutyl]methanol] | > 20000 nM | 4.02 nM | 
11 | CC(C)(O)C1CC(n2nc(NCc3nc4ccccc4[nH]3)c3ncc(C4CC4)nc32)C1 (mixture of isomers) [Example 48, 2-[cis/trans-3-(3-{[(1H-benzimidazol-2-yl)methyl]amino}-6-cyclopropyl-1H-pyrazolo[3,4-b]pyrazin-1-yl)cyclobutyl]propan-2-ol] | > 20000 nM | 39.5 nM | 
12 | O[C@H]1C[C@@H](n2nc(NCc3nc4ccccc4[nH]3)c3ncc(C4CC4)nc32)C1 [Example 40, cis-3-(3-{[(1H-benzimidazol-2-yl)methyl]amino}-6-cyclopropyl-1H-pyrazolo[3,4-b]pyrazin-1-yl)cyclobutan-1-ol] | > 20000 nM | 8.65 nM | 
